From patent US5288709A, “Erythromycin derivatives” (priority 1991, dated 1994)
Converted amounts (≈) assume the structure as drawn. Read-outs that look alike come from different tables or passages of the source.

Experiments:
Experiment in all cases: In-vitro antimicrobial activity primary screen (agar dilution MIC)
Assay type in all cases: cell-based
[1] = system: Staphylococcus aureus CMX 686B; conditions: CMX686B, BHI agar, 20-24 h, read-out: MIC
Procedure: (§1) The antimicrobial spectra of several of the compounds of the present invention were tested as described below.
(§2) Twelve petri dishes containing successive aqueous dilutions of the test compounds, mixed with 10 mL of sterilized Brain Heart Infusion (BHI) agar (Difco 0418-01-5), were prepared. Each plate was inoculated with 1:100 (or 1:10 for slow growing strains (primarily Micrococcus and Streptococcus) dilutions of up to 32 different microorganisms, using a Steers replicator block. The inoculated plates were incubated at 35 37° C. for 20-24 hours. In addition, a control plate, using BHI agar containing no test compound, was prepared and incubated at the beginning and the end of each test.
(§3) An additional plate containing a compound having known susceptibility patterns for the organisms being tested and belonging to the same antibiotic class as the test compounds was also prepared and incubated as a further control, as well as to provide test-to test comparability. Erythromycin A was used for this purpose.
(§4) After incubation, each plate was read. The MIC (minimum inhibitory concentration) is defined as the lowest concentration of test compound yielding no growth, a slight haze, or sparsely isolated colonies on the inoculum spot as compared to the growth control containing no test compound.

[2] = system: Staphylococcus aureus CMX 553; conditions: Staphylococcus aureus, CMX553, 24 h, BHI agar, 20-24 h, read-out: MIC
Procedure: as §1, §2, §3, §4

[3] = system: Staphylococcus aureus CMX 503A; conditions: Staphylococcus aureus, CMX503A, 24 h, BHI agar, 20-24 h, read-out: MIC
Procedure: as §1, §2, §3, §4

[4] = system: Staphylococcus epidermidis 3519; conditions: Staphylococcus epidermidis, 3519, 24 h, BHI agar, 20-24 h
Procedure: as §1, §2
(§5) An additional plate containing a compound having known susceptibility patterns for the organisms being tested and belonging to the same antibiotic class as the test compounds was also prepared and incubated as a further control, as well as to provide test-to test comparability.
as §4

[5] = system: Streptococcus agalactiae CMX 508; conditions: 20-24 h
Procedure: as §1, §2, §5, §4

[6] = system: Streptococcus pyrogenes EES61; conditions: BHI agar, 20-24 h, read-out: MIC
Procedure: as §1, §2, §5, §4

[7] = system: Staphylococcus aureus A5177; conditions: Staphylococcus aureus A5177, BHI agar, 20-24 h
Procedure: as §1, §2, §5, §4

[8] = system: Acinetobacter SP CMX 669; conditions: SPCMX669; Acinetobacter SP CMX 669; BHI agar, 20-24 h; read-out: MIC
Procedure: as §1, §2, §5, §4

[9] = system: Staphylococcus aureus ATCC 6538P; conditions: Staphylococcus aureus, ATCC6538P, 24 h, BHI agar, 20-24 h
Procedure: as §1, §2, §5, §4

[10] = system: Escherichia coli JUHL; conditions: Escherichia coli JUHL; BHI agar, 20-24 h; read-out: MIC
Procedure: as §1, §2, §5, §4

[11] = system: Providencia stuartii CMX 640; conditions: CMX640; Providencia stuartii CMX 640; BHI agar, 20-24 h; read-out: MIC
Procedure: as §1, §2, §5, §4

[12] = system: Pseudomonas aeruginosa K799/61
Procedure: as §1, §2, §5, §4

[13] = system: Enterobacter aerogenes ATCC 13048; conditions: Klebsiella aerogenes, ATCC13048; Enterobacter aerogenes ATCC 13048; BHI agar, 20-24 h; read-out: MIC
Procedure: as §1, §2, §5, §4

[14] = system: Escherichia coli DC-2; conditions: DC2; Escherichia coli DC-2; BHI agar, 20-24 h; read-out: MIC
Procedure: as §1, §2, §5, §4

[15] = system: Klebsiella pneumoniae ATCC 8045; conditions: ATCC8045; Klebsiella pneumoniae ATCC 8045; BHI agar, 20-24 h; read-out: MIC
Procedure: as §1, §2, §5, §4

[16] = system: Enterococcus faecium ATCC 8043
Procedure: as §1, §2, §5, §4

[17] = system: Pseudomonas aeruginosa BMH10; conditions: BHI agar, 20-24 h, read-out: MIC
Procedure: as §1, §2, §5, §4

[18] = system: Pseudomonas aeruginosa K799/WT; conditions: Pseudomonas aeruginosa K799/WT; BHI agar, 20-24 h; read-out: MIC
Procedure: as §1, §2, §5, §4

[19] = system: Staphylococcus aureus 45; conditions: BHI agar, 20-24 h
Procedure: as §1, §2, §5, §4

[20] = system: Escherichia coli SS; conditions: BHI agar, 20-24 h
Procedure: as §1, §2, §5, §4

[21] = system: Pseudomonas aeruginosa A5007; conditions: Pseudomonas aeruginosa A5007; BHI agar, 20-24 h; read-out: MIC
Procedure: as §1, §2, §5, §4

[22] = system: Pseudomonas cepacia 2961; conditions: Burkholderia cepacia, BHI agar, 20-24 h, read-out: MIC
Procedure: as §1, §2, §5, §4

[23] = system: Streptococcus pyrogenes 2548 INDUC; conditions: BHI agar, 20-24 h
Procedure: as §1, §2, §5, §4

[24] = system: Escherichia coli H560; conditions: Escherichia coli H560; BHI agar, 20-24 h; read-out: MIC
Procedure: as §1, §2, §5, §4

[25] = system: Staphylococcus aureus 45 RAR2; conditions: Staphylococcus aureus, 45RAR2, 24 h, BHI agar, 20-24 h
Procedure: as §1, §2, §5, §4

[26] = system: Micrococcus luteus ATCC 9341; conditions: 20-24 h
Procedure: as §1, §2, §5, §4

[27] = system: Streptococcus bovis A5169; conditions: Streptococcus equinus, BHI agar, 20-24 h, read-out: MIC
Procedure: as §1, §2, §5, §4

[28] = system: Micrococcus luteus ATCC 4698; conditions: 20-24 h
Procedure: as §1, §2, §5, §4

[29] = CMX508, BHI agar, read-out: MIC
[30] = Staphylococcus aureus, A5177, 24 h
[31] = ATCC8043, Enterococcus faecium ATCC 8043, BHI agar, 20-24 h, read-out: MIC
[32] = Staphylococcus aureus, 45, 24 h
[33] = ATCC9341, BHI agar, read-out: MIC
[34] = Micrococcus luteus, ATCC4698, 24 h, BHI agar

CC[C@H]1OC(=O)[C@H](C)[C@@H](O[C@H]2C[C@@](C)(OC)[C@@H](NS(C)(=O)=O)[C@H](C)O2)[C@H](C)[C@@H](O[C@@H]2O[C@H](C)C[C@H](N(C)C)[C@H]2O)[C@](C)(O)C[C@@H](C)[C@@H]2O[C@@]1(C)C(=O)[C@H]2C [Example 16, (4"S,9S)-9-Deoxo-4",11,12-trideoxy-9,12-epoxy-4"-(methylsulfonyl)amino-11-oxerythromycin A]
MIC [1]: 0.39 µg/mL (≈ 0.492 µM)
MIC [2]: 0.39 µg/mL (≈ 0.492 µM)
MIC [3]: 0.39 µg/mL (≈ 0.492 µM)
MIC [4]: 0.39 µg/mL (≈ 0.492 µM)
MIC [5, 29]: 0.02 µg/mL (≈ 0.0252 µM)
MIC [6]: < 0.005 µg/mL
MIC [7, 30]: 0.39 µg/mL (≈ 0.492 µM)
MIC [8]: 50 µg/mL (≈ 63 µM)
MIC [9]: 0.39 µg/mL (≈ 0.492 µM)
MIC [10]: > 100 µg/mL
MIC [11]: > 100 µg/mL
MIC ([12]; Pseudomonas aeruginosa, K799/61, 24 h): 3.1 µg/mL (≈ 3.91 µM)
MIC [13]: > 100 µg/mL
MIC [14]: > 100 µg/mL
MIC [15]: > 100 µg/mL
MIC [16, 31]: 0.05 µg/mL (≈ 0.063 µM)
MIC [17]: 100 µg/mL (≈ 126 µM)
MIC [18]: 100 µg/mL (≈ 126 µM)
MIC [19, 32]: 0.39 µg/mL (≈ 0.492 µM)
MIC ([20]; Escherichia coli, 24 h): 0.39 µg/mL (≈ 0.492 µM)
MIC [21]: > 100 µg/mL
MIC [22]: > 100 µg/mL
MIC ([23]; Streptococcus, 2548INDUC, 24 h): 3.1 µg/mL (≈ 3.91 µM)
MIC [24]: > 100 µg/mL
MIC [25]: 0.78 µg/mL (≈ 0.984 µM)
MIC ([26]; Micrococcus luteus, ATCC9341, 24 h, BHI agar): 0.02 µg/mL (≈ 0.0252 µM)
MIC [27]: < 0.005 µg/mL
MIC ([28]; ATCC4698, BHI agar, read-out: MIC): 0.05 µg/mL (≈ 0.063 µM)

CC[C@H]1OC(=O)[C@H](C)[C@@H](O[C@H]2C[C@@](C)(OC)[C@H](NS(C)(=O)=O)[C@H](C)O2)[C@H](C)[C@@H](O[C@@H]2O[C@H](C)C[C@H](N(C)C)[C@H]2O)[C@](C)(O)C[C@@H](C)[C@@H]2O[C@@]1(C)C(=O)[C@H]2C [Example 11, (4"R,9S)-9-Deoxo-4",11,12-trideoxy-9,12-epoxy-4"-[(methylsulphonyl)amino]-11-oxoerythromycin A]
MIC [1]: 0.39 µg/mL (≈ 0.492 µM)
MIC [2]: 0.2 µg/mL (≈ 0.252 µM)
MIC [3]: 0.39 µg/mL (≈ 0.492 µM)
MIC [4]: 0.78 µg/mL (≈ 0.984 µM)
MIC [5, 29]: 0.02 µg/mL (≈ 0.0252 µM)
MIC [6]: < 0.005 µg/mL
MIC [7, 30]: 0.39 µg/mL (≈ 0.492 µM)
MIC [8]: 50 µg/mL (≈ 63 µM)
MIC [9]: 0.39 µg/mL (≈ 0.492 µM)
MIC [10]: > 100 µg/mL
MIC [11]: > 100 µg/mL
MIC ([12]; Pseudomonas aeruginosa, K799/61, 24 h, Pseudomonas aeruginosa K799/61, BHI agar, 20-24 h): 3.1 µg/mL (≈ 3.91 µM)
MIC [13]: > 100 µg/mL
MIC [14]: > 100 µg/mL
MIC [15]: > 100 µg/mL
MIC [16, 31]: 0.05 µg/mL (≈ 0.063 µM)
MIC [17]: > 100 µg/mL
MIC [18]: 100 µg/mL (≈ 126 µM)
MIC [19, 32]: 0.39 µg/mL (≈ 0.492 µM)
MIC ([20]; Escherichia coli, 24 h): 0.78 µg/mL (≈ 0.984 µM)
MIC [21]: > 100 µg/mL
MIC [22]: > 100 µg/mL
MIC ([23]; Streptococcus, 2548INDUC, 24 h): 0.78 µg/mL (≈ 0.984 µM)
MIC [24]: > 100 µg/mL
MIC [25]: 0.39 µg/mL (≈ 0.492 µM)
MIC [26, 33]: 0.05 µg/mL (≈ 0.063 µM)
MIC [27]: < 0.005 µg/mL
MIC [28, 34]: 0.1 µg/mL (≈ 0.126 µM)

CC[C@H]1OC(=O)[C@H](C)[C@@H](O[C@H]2C[C@@](C)(OC)[C@H](NC(=O)OCc3ccccc3)[C@H](C)O2)[C@H](C)[C@@H](O[C@@H]2O[C@H](C)C[C@H](N(C)C)[C@H]2O)[C@](C)(O)C[C@@H](C)[C@@H]2O[C@@]1(C)C(=O)[C@H]2C [Example 7, (4"R,9S)-9-Deoxo-4",11,12-trideoxy-9,12-epoxy-11-oxo-4"-[[(phenylmethoxy)carbonyl]amino]erythromycin A]
MIC [1]: 0.2 µg/mL (≈ 0.236 µM)
MIC [2]: 0.2 µg/mL (≈ 0.236 µM)
MIC [3]: 0.2 µg/mL (≈ 0.236 µM)
MIC [4]: 0.39 µg/mL (≈ 0.459 µM)
MIC ([5]; Streptococcus agalactiae, CMX508, 24 h, BHI agar): 0.05 µg/mL (≈ 0.0589 µM)
MIC [6]: 0.1 µg/mL (≈ 0.118 µM)
MIC ([7]; read-out: MIC): 0.39 µg/mL (≈ 0.459 µM)
MIC [9]: 0.2 µg/mL (≈ 0.236 µM)
MIC [10]: > 100 µg/mL
MIC [11]: > 100 µg/mL
MIC ([12]; Pseudomonas aeruginosa K799/61, BHI agar, 20-24 h, read-out: MIC): 0.78 µg/mL (≈ 0.919 µM)
MIC [13]: 100 µg/mL (≈ 118 µM)
MIC [14]: 100 µg/mL (≈ 118 µM)
MIC [15]: 100 µg/mL (≈ 118 µM)
MIC ([16]; Enterococcus faecium, ATCC8043, 24 h): 0.1 µg/mL (≈ 0.118 µM)
MIC [17]: 100 µg/mL (≈ 118 µM)
MIC [18]: 100 µg/mL (≈ 118 µM)
MIC ([19]; read-out: MIC): 0.2 µg/mL (≈ 0.236 µM)
MIC ([20]; read-out: MIC): 1.56 µg/mL (≈ 1.84 µM)
MIC [21]: > 100 µg/mL
MIC [22]: > 100 µg/mL
MIC ([23]; read-out: MIC): 0.39 µg/mL (≈ 0.459 µM)
MIC [25]: 0.39 µg/mL (≈ 0.459 µM)
MIC [26, 33]: 0.05 µg/mL (≈ 0.0589 µM)
MIC [27]: 0.1 µg/mL (≈ 0.118 µM)
MIC [28, 34]: 0.2 µg/mL (≈ 0.236 µM)
